# Where “and” joins values, the source holds several entries; their conditions need not be identical. Equal values may be shown once. Entries after “also recorded” stand apart in the source; their conditions may differ. Read-outs that look alike come from different tables or passages of the source.
# Tests used:
# [1] = tested on: BRAF-mutant Colo205, A375P F11s, and HT-29 human tumor xenograft; conditions: 0.3 mg/kg; cited from earlier work
# MEK2 = tested on: MEK2; set-up: method as in ref 17 (a number printed in a supplementary file, which may have a reference list of its own: not looked up in the article's list); conditions: read-out: IC50 against MEK2; cited from earlier work
# [2] = cited from earlier work
# CYP enzymes = conditions: cited from earlier work
# CYP 2B6 and 3A4 = conditions: cited from earlier work
# [3] = tested on: patients with solid tumors or lymphoma; set-up: method as in ref 20 (a number printed in a supplementary file, which may have a reference list of its own: not looked up in the article's list); conditions: cited from earlier work
# [4] = tested on: advanced cancer patients with varying degrees of hepatic dysfunction
# [5] = tested on: melanoma, pancreatic cancer, CRC; conditions: cited from earlier work
# KRAS-mutant NSCLC = tested on: KRAS-mutant NSCLC; set-up: method as in ref 24 (a number printed in a supplementary file, which may have a reference list of its own: not looked up in the article's list); conditions: cited from earlier work
# [6] = 25° C; cited from earlier work
# [7] = tested on: BRAF V600E or V600K mutation-positive melanoma; conditions: 40 patients with prior BRAF inhibitor; 2 mg PO QD; cited from earlier work
# pERK = tested on: pERK; set-up: method as in ref 17 (a number printed in a supplementary file, which may have a reference list of its own: not looked up in the article's list); conditions: cited from earlier work
# rabbits = conditions: rabbit, in vivo; cited from earlier work
# [8] = tested on: unresectable stage IIIC or IV cutaneous melanoma with BRAF V600E or V600K mutation; conditions: cited from earlier work
# pMEK1 kinase activity = biological target: pMEK1 kinase activity; set-up: method as in ref 19 (a number printed in a supplementary file, which may have a reference list of its own: not looked up in the article's list); conditions: cited from earlier work
# [9] = tested on: MRP2, BSEP, P-gp, BCRP, OATP1B1, OATP1B3, OAT1, OAT3, OCT2, MATE1; conditions: cited from earlier work
# [10] = cited from earlier work; remark: listed apart in the source
# [11] = dose normalized to 2 mg
# MEK1 = tested on: MEK1; set-up: method as in ref 17 (a number printed in a supplementary file, which may have a reference list of its own: not looked up in the article's list); conditions: read-out: IC50 against MEK1; cited from earlier work
# [12] = set-up: method as in ref 17 (a number printed in a supplementary file, which may have a reference list of its own: not looked up in the article's list); conditions: cited from earlier work
# [13] = tested on: panel of 183 kinases, including MEK5, CRAF, BRAF, ERK1, and ERK2; set-up: method as in ref 18 (a number printed in a supplementary file, which may have a reference list of its own: not looked up in the article's list); conditions: cited from earlier work
# [14] = tested on: advanced cancer patients with varying degrees of hepatic dysfunction; conditions: human, in vivo
structure (smiles),measurement,setting,value
"CC(=O)Nc1cccc(-n2c(=O)n(C3CC3)c(=O)c3c(Nc4ccc(I)cc4F)n(C)c(=O)c(C)c32)c1 [Trametinib, equimolecular combination of acetamide, N-[3-[3-cyclopropyl-5-[(2-fluoro-4-iodophenyl)amino]-3,4,6,7-tetrahydro6,8-dimethyl-2,4,7-trioxopyrido[4,3-d]pyrimidin-1(2H)-yl]phenyl] with 1,1’-sulfinylbis[methane]]",tumor regression in the Colo205 model,[1],tumor regression was observed
same,"fecal excretion, of the radioactive dose",[2]; 2 subjects,39.2% and 35.0%
same,"fecal excretion, of excreted radioactivity recovered",[2]; oral dose,> 80%
same,"urinary excretion, of excreted radioactivity recovered",[2]; oral dose,< 19%
same,"urinary excretion, of the radioactive dose",[2]; oral dose,< 10%
same,"inhibitor of CYP 1A2, 2A6, 2B6, 2C9, 2C19, 2D6 and 3A4",CYP enzymes,not an inhibitor
same,"inhibitor of CYP1A2, CYP2A6, CYP2B6, CYP2D6, and CYP3A4",CYP enzymes; in vitro studies,not an inhibitor
same,inhibitor of CYP 2C8,CYP enzymes; in vitro,in vitro inhibitor
same,CYP 2B6 and 3A4 inducer,CYP 2B6 and 3A4,weak
same,MTD,[3],3 mg QD
same,recommended phase 2 dose (RP2D),[3],2 mg QD
same,Death related to TRAEs,[4]; Mild 2 mg,0 (0%)
same,Death related to TRAEs,[4]; Mod DL1 1.5 mg,0 (0%)
same,Death related to TRAEs,[4]; Mod DL+1 2 mg,0 (0%)
same,Death related to TRAEs,[4]; Norm 2 mg,0 (0%)
same,Death related to TRAEs,[4]; Sev DL1 1 mg,0 (0%)
same,Death related to TRAEs,[4]; Sev DL+1 1.5 mg,0 (0%)
same,Death related to TRAEs,[4]; Total Patients,0 (0%)
same,Death related to TRAEs,"[4]; Total Patients, listed as trametinib",No treatment related deaths
same,Alanine aminotransferase increased,"[4]; human, in vivo",9 (20%)
same,Anemia,"[4]; human, in vivo",10 (23%)
same,Blood alkaline phosphatase increased,"[4]; human, in vivo",9 (20%)
same,Grade 3 TRAEs,"[4]; human, in vivo",2 events
same,Hypertension,"[4]; human, in vivo",8 (18%)
same,Hypomagnesemia,"[4]; human, in vivo",8 (18%)
same,Hyponatremia,"[4]; human, in vivo",9 (20%)
same,Maculopapular rash,"[4]; human, in vivo",11 (23%)
same,Mucositis,"[4]; human, in vivo",6 (14%)
same,Thrombocytopenia,"[4]; human, in vivo",10 (23%)
same,Treatment discontinuation due to TRAEs,"[4]; human, in vivo",3 (7%)
same,Treatment discontinuation due to non-TRAEs,"[4]; human, in vivo",10 (23%)
same,Vomiting,"[4]; human, in vivo",9 (20%)
same,grade 3 gamma-glutamyl transferase increased,"[4]; human, in vivo",1 patient
same,grade 3 pneumonitis,"[4]; human, in vivo",1 patient
same,partial response (PR),[5]; 9 patients with BRAF wt melanoma,2 patients
same,overall objective response rate (ORR),"[5]; 14 patients with BRAF-mutant melanoma, 2 mg QD",43%
same,complete responses (CRs),[5]; 14 patients with BRAF-mutant melanoma,2
same,PRs,[5]; 26 evaluable pancreatic cancer patients,2
same,objective responses,[5]; 28 patients with colorectal cancer,no objective responses
same,median PFS,KRAS-mutant NSCLC,11.7 weeks
same,overall response rate (ORR),KRAS-mutant NSCLC,12%
same,Approximate Solubility in water,[6],< 0.1 µg/mL
same,confirmed PR or CR,[7],None of the patients
same,Embryofetal toxicity,rabbits,embryotoxic and abortifacient
same,"CR, n (%)",[8],4 (2%) n (%)
same,Objective Response Rate (95% CI),[8],22%
same,"PR, n (%)",[8],43 (20%) n (%)
same,6-month OS rate,[8]; in vivo,81%
same,"PFS Median, months (95% CI)",[8]; investigator-assessed,"4.8 (4.3, 4.9) months"
same,PFS HR (95% CI),"[8]; trametinib vs chemotherapy, P<0.0001","0.47 (0.34, 0.65)"
same,IC50,pMEK1 kinase activity,13 nM
same,"inhibitor of P-gp, BCRP, OATP1B1, OATP1B3, OAT1, OAT3, OCT2 and MATE1",[9]; at systemic concentrations that are not clinically relevant,in vitro inhibitor
same,inhibitor of MRP2 or BSEP,[9],not an inhibitor
same,"difference in exposure, mild hepatic impairment vs normal hepatic function",[10]; 64 ([…]) subjects with mild hepatic impairment (NCI classification),2%
same,"oral clearance and exposure, mild hepatic impairment vs normal hepatic function",[10]; population PK analysis,not significantly different
same,"CLssF, Geo mean (%CV)",[11]; Mild (n = 6),5680.0 (45.5) mL/hr
same,"CLssF, Mean (±SD)",[11]; Mild (n = 6),6200.0 (±2818.6) mL/hr
same,"Cavg, Geo mean (%CV)",[11]; Mild (n = 6),14.7 (51.9) ng/mL
same,"Cavg, Mean (±SD)",[11]; Mild (n = 6),16.2 (±8.4) ng/mL
same,"Cmin, Geo mean (%CV)",[11]; Mild (n = 6),10.8 (57.3) ng/mL
same,"Cmin, Mean (±SD)",[11]; Mild (n = 6),12.1 (±7.0) ng/mL
same,"CLssF, Geo mean (%CV)",[11]; Mod (n = 3),6431.6 (8.4) mL/hr
same,"CLssF, Mean (±SD)",[11]; Mod (n = 3),6446.4(±542.6) mL/hr
same,"Cavg, Geo mean (%CV)",[11]; Mod (n = 3),13.0 (8.1) ng/mL
same,"Cavg, Mean (±SD)",[11]; Mod (n = 3),13.0 (±1.1) ng/mL
same,"Cmin, Geo mean (%CV)",[11]; Mod (n = 3),10.4 (22.4) ng/mL
same,"Cmin, Mean (±SD)",[11]; Mod (n = 3),10.5 (±2.4) ng/mL
same,"CLssF, Geo mean (%CV)",[11]; Norm (n = 10),4449.0 (36.0) mL/hr
same,"CLssF, Mean (±SD)",[11]; Norm (n = 10),4675.0 (±1683.6) mL/hr
same,"Cavg, Geo mean (%CV)",[11]; Norm (n = 10),18.7 (28.1) ng/mL
same,"Cavg, Mean (±SD)",[11]; Norm (n = 10),19.5 (±5.5) ng/mL
same,"Cmin, Geo mean (%CV)",[11]; Norm (n = 10),14.4 (29.8) ng/mL
same,"Cmin, Mean (±SD)",[11]; Norm (n = 10),15.1 (±4.5) ng/mL
same,"CLssF, Geo mean (%CV)",[11]; Sev (n = 3),8736.3 (36.5) mL/hr
same,"CLssF, Mean (±SD)",[11]; Sev (n = 3),9141.3 (±3337.1) mL/hr
same,"Cavg, Geo mean (%CV)",[11]; Sev (n = 3),9.5 (36.4) ng/mL
same,"Cavg, Mean (±SD)",[11]; Sev (n = 3),10.0 (±3.6) ng/mL
same,"Cmin, Geo mean (%CV)",[11]; Sev (n = 3),7.6 (32.3) ng/mL
same,"Cmin, Mean (±SD)",[11]; Sev (n = 3),7.9 (±2.5) ng/mL
same,"differences of PK parameters (Cmax, Cmin, Cavg, AUC0 − 24) between hepatic function groups",[11]; ANOVA,no significant differences; also recorded: not statistically different
same,IC50,MEK1,0.7 nM
same,Cmax,"[12]; Day 7, 3 mg/kg, read-out: average Cmax in blood",1410 nM
same,estimated half-life (t1/2),[12]; mice,33 h
same,specificity against a panel of 183 kinases,[13],specificity of trametinib was confirmed
same,RP2D,[14],2 mg QD
